Data from PMC5606850, “Acidic C-terminal domains autoregulate the RNA chaperone Hfq” (eLife, 2017).

Assays:
[1] = tested on: D16-FAM·R16; assay: anisotropy time-course of D16-FAM·R16 binding, annealing and release; assay type: biochemical; conditions: 50 nM D16-FAM, 50 nM Hfq hexamer, then 50 nM R16, TNK buffer, 30 °C, three trials
Method: (§1) Figure 4. Shortening the CTD increases auto-inhibition by acidic residues. (A) Observed annealing rate constants for 100 nM target RNA and 50 nM molecular beacon with 0–200 nM Hfq hexamer at 30°C, measured by stopped-flow fluorescence. Black, Hfq102; red, Hfq-sCTD; cyan, Hfq65. (B) Fluorescence anisotropy assay for RNA binding and release. In stopped-flow FRET experiments, the dsRNA is released after pairing with its complementary strand ([Panja et al., 2013]; [Santiago-Frangos et al., 2016]). […] Remaining RNA was displaced from Hfq by excess ssDNA (400 nM DNA2). The averages and standard deviations for three trials are plotted for each Hfq variant. […] (D) Annealing of 5 nM ^32P-ChiX sRNA with 30 nM chiP mRNA without Hfq, or with Hfq65, Hfq102 or Hfq-sCTD, as indicated above each lane. Samples were loaded on a native polyacrylamide gel 60 min or 20 s after the components were mixed. […] (E) Fractions of free ChiX (black), ChiX·chiP dsRNA (light grey), ChiX·Hfq·chiP ternary complex (hatched) and ChiX·Hfq binary complex (dark grey) after 4 min of annealing, as analyzed by EMSA (Figure 4—figure supplement 2). […] Annealing of 100 nM Target RNA to 50 nM beacon RNA by Hfq variants was measured by stopped flow fluorescence at 30°C in 1 × TNK buffer. […] The change in fluorescence emission intensity was normalized to the maximum fluorescence within an experiment. […]

[2] = SDS-PAGE oligomerization of purified Hfq variants; assay type: physicochemical, E. coli; conditions: 4–20% SDS-PAGE, ~2.8 µg protein, 2% SDS, boiled
Method: Figure 2. CTD and RNA occupy the same rim binding site. […] The CTD linker is shown in purple, the acidic tip in red and the N-terminal FITC as a yellow star. Hfq core is shown in cyan, with basic rim patches in dark blue. […] (C) Reaction scheme for annealing an RNA molecular beacon to a target RNA (open bar) ([Hopkins et al., 2011]; [Panja et al., 2015]). (D) Progress curves for annealing 50 nM molecular beacon and 100 nM Target by 50 nM Hfq65 hexamer at 30°C, measured by stopped-flow fluorescence. See Figure 2—figure supplement 3 for further data. (E) Contribution of core residues to CTD binding. Interaction energy (Expected Energetic Contribution; EEC) in silico for a core residue in the Rosetta models (solid symbols and solid line; adjusted R^2 = 0.77) or the average annealing rates for Target and Target-A18 relative to Hfq65 (open symbols and dashed line; adjusted R^2 = 0.94) versus experimental CTD binding energy (∆∆G°) for each Hfq65 variant. The binding energy, ∆∆G° = –RTln(Kd^MUT/Kd), reflects the perturbation to CTD binding by a mutation in Hfq65. The interaction energy in silico or EEC is defined as the average energy of a tail–core interaction multiplied by the average number of tail–core interactions per model (Figure 1B, top and Equation 3). The relative annealing rate for Hfq65 variants, krel = kobs^MUT/kobs^WT, is <1 if the mutated residue is important for RNA annealing. Figure 2—figure supplement 1. SDS-PAGE of purified Hfq variants. WT Hfq assembles into hexamers and dodecamers that are stable to SDS-PAGE, which can be used to evaluate the oligomerization of Hfq variants. Purified Hfq protein (~2.8 µg) was separated on a 4–20% SDS-PAGE gel and stained with Coomassie blue (lanes 2–6). Samples were prepared in 2% SDS and boiled before loading. Lane 1, Protein standards (10 µL All Blue Precision Plus, […]). […] Annealing of 100 nM Target RNA to 50 nM beacon RNA by Hfq65 and Hfq65 variants was measured by stopped flow fluorescence at 30°C in 1 × TNK buffer. […] The change in fluorescence emission intensity was normalized to the maximum fluorescence within an experiment. […]

[3] = tested on: Target-A18; assay: RNA annealing kinetics (molecular beacon with Target-A18), stopped-flow fluorescence; assay type: biochemical; conditions: 50 nM molecular beacon, 100 nM Target-A18, 0–200 nM Hfq hexamer, 30 °C
Method: as §1

Row | Substance | release of annealed dsRNA (D16-FAM·R16) from Hfq [1] | oligomeric state on SDS-PAGE [2] | annealing acceleration for Target-A18 compared to no Hfq [3]
1 | Hfq65: truncated E. coli Hfq variant lacking the CTD | a large proportion of the dsRNA remained bound to Hfq65 | form hexamers with slightly different stabilities | roughly 100 fold
2 | Hfq102: full-length E. coli Hfq | most of the annealed dsRNA dissociated from Hfq102 | migrates as a dodecamer (red dot) and monomer (green dot) with no visible hexamer band | roughly 100 fold
